Reference: US4650855A, “Glycopeptide antibiotic L 17046” (Gruppo Lepetit S.p.A., priority 1983, dated 1987)
≈ marks a conversion by molar mass, not a printed value.

Assays:
[1] = test system: Staplylococcus aureus Tour; experiment: In vitro antibacterial activity, two-fold dilution method in microtiter system (MIC); format: cell-based, Staphylococcus aureus
Method: (§1) Isosensitest broth (Oxoid) and Todd-Hewitt broth (Difco) were used for Staphylococci and Streptococci, respectively. Broth cultures were diluted so that the final inoculum was about 10^4 colony forming units/ml (CFU/ml).

[2] = test system: Staphylococcus aureus ATCC 6538; experiment: as above; format: cell-based; conditions: Isosensitest broth, inoculum about 10^4 CFU/ml, 18-24 h at 37° C.
Method: as §1

[3] = test system: Staphylococcus epidermidis ATCC 12228; experiment: as above; format: cell-based; conditions: Isosensitest broth, inoculum about 10^4 CFU/ml, 18-24 h at 37° C.
Method: as §1

[4] = test system: Streptococcus dysgalactiae ATCC 9926; experiment: as above; format: cell-based; conditions: Todd-Hewitt broth, inoculum about 10^4 CFU/ml, 18-24 h at 37° C.
Method: as §1

[5] = test system: Streptococcus faecalis ATCC 7080; experiment: as above; format: cell-based; conditions: Todd-Hewitt broth, inoculum about 10^4 CFU/ml, 18-24 h at 37° C.
Method: as §1

[6] = test system: Streptococcus pneumoniae UC 41; experiment: as above; format: cell-based; conditions: Todd-Hewitt broth, inoculum about 10^4 CFU/ml, 18-24 h at 37° C.
Method: as §1

[7] = test system: Streptococcus pyogenes C 203; experiment: as above; format: cell-based; conditions: Todd-Hewitt broth, inoculum about 10^4 CFU/ml, 18-24 h at 37° C.
Method: as §1

S. epidermidis L 1142 = experiment: MIC against clinical isolates of coagulase-negative staphylococci; format: cell-based; conditions: clinical isolate, methicillin-resistant strain
Method: as §1
(§2) Its MICs […] against some clinical isolates of the above microbial strains are listed below in Table II: […]

S. epidermidis L 1378 = experiment: as above; format: cell-based; conditions: clinical isolate
Method: as §1, §2

S. epidermidis L 785 = experiment: as above; format: cell-based; conditions: clinical isolate, methicillin-resistant strain
Method: as §1, §2

S. epidermidis L 835 = experiment: as above; format: cell-based; conditions: clinical isolate, methicillin-resistant strain
Method: as §1, §2

S. saprophyticus L 1141 = experiment: as above; format: cell-based; conditions: clinical isolate
Method: as §1, §2

gram-positive bacteria = experiment: In vitro antibacterial activity, spectrum; format: cell-based
Method: as §1

[8] = test system: coagulase-negative staphylocci (S. epidermidis, S. saprophyticus); experiment: Effectiveness against coagulase-negative staphylococci; format: cell-based
Excerpt: as §2

mice = experiment: Approximate acute toxicity in mice; format: in vivo; conditions: acute toxicity (i.p.), administered by i.m. route as printed
Solubility = format: physicochemical
[9] = Potentiometric titration profile; format: physicochemical; conditions: methylcellosolve:water 4:1, titration with 0.01 N NaOH after excess 0.01 N HCl

## CC(=O)N[C@@H]1[C@@H](O[C@H]2c3ccc(c(Cl)c3)Oc3cc4cc(c3O)Oc3ccc(cc3Cl)C[C@@H]3NC(=O)[C@@H](N)c5ccc(O)c(c5)Oc5cc(O)cc(c5)[C@@H](NC3=O)C(=O)N[C@@H]4C(=O)N[C@@H]3C(=O)N[C@H]2C(=O)N[C@@H](C(=O)O)c2cc(O)cc(O)c2-c2cc3ccc2O)O[C@@H](CO)[C@H](O)[C@H]1O (stereo in doubt) [antibiotic L 17046]
[1]; Isosensitest broth + 30% bovine serum
  MIC: 0.4 µg/mL
[1]; Isosensitest broth, inoculum about 10^4 CFU/ml, 18-24 h at 37° C.
  MIC: 0.2 µg/mL (≈ 0.143 µM)
[2]
  MIC: 0.2 µg/mL (≈ 0.143 µM)
[3]
  MIC: 0.05 µg/mL (≈ 0.0357 µM)
[4]
  MIC: 0.8 µg/mL (≈ 0.571 µM)
[5]
  MIC: 1.6 µg/mL (≈ 1.14 µM)
[6]
  MIC: 1.6 µg/mL (≈ 1.14 µM)
[7]
  MIC: 1.6 µg/mL (≈ 1.14 µM)
S. epidermidis L 1142
  MIC: 0.1 µg/mL (≈ 0.0713 µM)
S. epidermidis L 1378
  MIC: 0.05 µg/mL (≈ 0.0357 µM)
S. epidermidis L 785
  MIC: 0.05 µg/mL (≈ 0.0357 µM)
S. epidermidis L 835
  MIC: 0.1 µg/mL (≈ 0.0713 µM)
S. saprophyticus L 1141
  MIC: 0.1 µg/mL (≈ 0.0713 µM)
gram-positive bacteria
  in vitro antibacterial activity (spectrum): mainly active against gram-positive bacteria
[8]
  effectiveness against coagulase-negative staphylococci: particularly effective
mice
  approximate LD50: about 850 mg/kg
Solubility; in highly concentrated mineral acids
  solubility: insoluble
Solubility; in methanol
  solubility: sligltly soluble
Solubility; in water at pH>8.0, dimethylformamide, dimethylsulfoxide, propyleneglycol and methylcellosolve
  solubility: freely soluble
[9]; five equivalents
  pH1/2 value, third titration slope: 11
[9]; one equivalent
  pH1/2 value, first titration slope: 5.0
  pH1/2 value, second titration slope: 7.0
